Values quoted from earlier work as cited in PMC2700308 (Biochemistry, 2009).

System: a protein
Settings: calorimetric; ref [33]

ΔH of binding of sulfate to a protein: 4.3 kcal/mol
Structure (SMILES): O=S(=O)(O)O [sulfate]
